According to patent US8846704B2, “Thiopyrimidine-based compounds and uses thereof” (YM Biosciences Austraila Pty Ltd, priority 2007, dated 2014):

These compounds were tested against T1, BaF3 TELJAK3 cells (Homo sapiens, UniProt P52333) (assay: Cellular screening, BaF3 TEL:JAK3 cells, Alamar Blue). Conditions: 40 hr, read-out: BafT_J3 IC50_nM.
T1 construct: fused on or other part: TEL (ETV6) N-terminal part, coding nucleotides 1-487, serves as the oligomerising partner; It is fused through a Sal I site to the JAK3 kinase domain and expressed from pTRE2 in BaF3 cells bearing pTET-off; P41212 (Transcription factor ETV6)
T1 sequence (P52333 1-1124): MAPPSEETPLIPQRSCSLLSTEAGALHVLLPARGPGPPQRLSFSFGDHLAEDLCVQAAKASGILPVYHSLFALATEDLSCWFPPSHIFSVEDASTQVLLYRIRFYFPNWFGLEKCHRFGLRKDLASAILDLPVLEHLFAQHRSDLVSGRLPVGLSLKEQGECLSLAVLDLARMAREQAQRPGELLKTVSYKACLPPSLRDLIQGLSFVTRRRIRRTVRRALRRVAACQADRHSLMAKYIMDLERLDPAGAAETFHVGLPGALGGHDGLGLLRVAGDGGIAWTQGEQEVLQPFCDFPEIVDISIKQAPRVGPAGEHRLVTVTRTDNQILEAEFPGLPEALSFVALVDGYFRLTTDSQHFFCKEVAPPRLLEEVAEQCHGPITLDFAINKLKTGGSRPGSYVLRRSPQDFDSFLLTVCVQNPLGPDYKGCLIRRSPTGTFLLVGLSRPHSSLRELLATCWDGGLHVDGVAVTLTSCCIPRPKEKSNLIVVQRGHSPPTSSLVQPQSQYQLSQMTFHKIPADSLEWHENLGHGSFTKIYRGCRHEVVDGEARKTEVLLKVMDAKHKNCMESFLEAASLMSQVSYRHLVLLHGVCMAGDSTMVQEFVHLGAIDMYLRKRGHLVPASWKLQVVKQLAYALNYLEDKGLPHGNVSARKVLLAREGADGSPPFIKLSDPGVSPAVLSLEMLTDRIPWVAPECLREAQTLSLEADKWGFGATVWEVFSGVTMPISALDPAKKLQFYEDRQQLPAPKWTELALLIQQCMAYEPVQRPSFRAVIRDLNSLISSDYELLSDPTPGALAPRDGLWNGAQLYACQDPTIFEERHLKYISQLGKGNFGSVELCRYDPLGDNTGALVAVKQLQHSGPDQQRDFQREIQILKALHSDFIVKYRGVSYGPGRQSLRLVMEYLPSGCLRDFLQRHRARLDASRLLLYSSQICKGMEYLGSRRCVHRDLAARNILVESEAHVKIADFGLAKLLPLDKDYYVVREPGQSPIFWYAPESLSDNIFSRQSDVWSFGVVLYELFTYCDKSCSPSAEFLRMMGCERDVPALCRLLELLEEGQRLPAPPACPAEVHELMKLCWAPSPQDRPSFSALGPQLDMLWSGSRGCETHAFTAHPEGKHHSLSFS
Format: cell-based
Procedure: For screening purposes, compounds were diluted in 96 well plates at a concentration of 20 μM. Plates were warmed at 37° C. for 30 minutes before the assay was performed.
The coding region encompassing nucleotides 1-487 of TEL was amplified by PCR using the oligonucleotides STEL (5′-GGAGGATCCTGATCTCTCTCGCTGTGAGAC-3′) [SEQ ID NO 14] and 3TEL (5′-AGGC GTCGACTTCTTCTTCATGGTTCTG-3′) [SEQ ID NO 15] and U937 mRNA as a template. A […] restriction site was incorporated into the STEL primer, and a Sal I restriction site was incorporated into the 3TEL primer. The regions encompassing the kinase domain of JAK2 (nucleotides 2994-3914; JAK2F 5′-ACGC GTCGACGGTGCCTTTGAAGACCGGGAT-3′ [SEQ ID NO 16]; JAK2R 5′-ATAGTTTAGCGGCCGCTCAGAATGAAGGTCATTT-3′) [SEQ ID NO 17] and JAK3 (nucleotides 2520-3469; JAK3F 5′-GAAGTCGACTATGCCTGCCAAGACCCCACGATCTT-3′) [SEQ ID NO 18] were generated by PCR using Taq DNA polymerase (Gibco/BRL) and […] as a template. A Sal I restriction site was incorporated into the forward primer of JAK2 and JAK3, a Not I site was incorporated into the JAK2 reverse primer and a Xba I site was added to the reverse primer of JAK3.
The TEL/Jak3 fusion was prepared by ligation of the JAK3 Sal I/Not I cleaved kinase domain PCR product with the BamH I/Sal I restriction digested TEL product, followed by ligation of the ligation product into the BamH I/Not I digested pTRE2, to give the TEL/Jak3 fusion plasmid pTELJAK3.
The growth factor dependant myelomonocytic cell line BaF3 bearing the pTET-off plasmid (Clontech) was transfected with either pTELJAK2 or pTELJAK3, and the transfected cells were selected for growth-factor independent cell growth. The BaF3 wild-type cells were cultured in DMEM containing 10% FCS, 10% WEHI 3B conditioned medium. The BaF3 TELJAK cells ([…]) were cultured in DMEM 10% Tet-System Approved FBS (without WEHI 3B conditioned medium).
Cell suspensions were prepared by harvesting cells from culture (the cells used in this test were in late log phase growth with high viability.) Cells were diluted in the appropriate growth medium, as described above, to 1.1× final concentration (from 50,000 cell/mL to 200,000 cell/mL, depending on cell line).
Compounds to be tested were added (10 μL, 10× final concentration) to a flat bottomed 96-well plate. The cellular suspension (90 μL per well) was then added, and the plate incubated for 40 hr at 37° C., 5% CO2. Alamar Blue 10 μL per well was added and the plates returned to the incubator for a further 4-6 hours. The plates were then read at 544 nm.

For `C=CC(=O)Nc1ccc(Sc2nc(Nc3ccc(C)c(Br)c3)ncc2C)cc1` [Compound 242, N-(4-(2-(3-bromo-4-methylphenylao)-5-methylpyrimidin-4-ylthio)phenyl)acrylamide], which GI50 is on record?
The GI50 was under 20 µM.

How did the GI50 turn out when `C=CC(=O)Nc1ccc(Sc2ccnc(Nc3cccc(O)c3)n2)cc1` [Compound 277, N-(4-(2-(3-hydroxyphenylao)pyrimidin-4-ylthio)phenyl)acrylamide] was run?
Its GI50 is under 1 µM.

Which GI50 does the source give for `Cc1cnc(Nc2ccc(N3CCOCC3)cc2)nc1Sc1c(C)cc(N)cc1C` [Compound 165, 4-(4-ao-2,6-dimethylphenylthio)-5-methyl-N-(4-morpholinophenyl)pyrimidin-2-ae] here?
The GI50 was over 20 µM.

How did the GI50 turn out when `NCc1cccc(Sc2ccnc(Nc3ccc(N4CCOCC4)cc3)n2)c1` [Compound 75, 4-(3-(aomethyl)phenylthio)-N-(4-morpholinophenyl)pyrimidin-2-ae] was run?
Its GI50 is under 20 µM.

How did the GI50 turn out when `C=CC(=O)Nc1ccc(Sc2ccnc(Nc3ccc(N4CCN(C)CC4)cc3)n2)cc1` [Compound 238, N-(4-(2-(4-(4-methylpiperazin-1-yl)phenylao)pyrimidin-4-ylthio)phenyl)acrylamide] was run?
Its GI50 is under 1 µM.

For `Cc1cnc(Nc2cccc(N3CCN(C)CC3)c2)nc1Sc1ccc(N)cc1` [Compound 245, 4-(4-aophenylthio)-5-methyl-N-(3-(4-methylpiperazin-1-yl)phenyl)pyrimidin-2-ae], which GI50 is on record?
Its GI50 is under 1 µM.

`CNC(=O)/C=C\C(=O)Nc1ccc(Sc2nc(Nc3ccc(N4CCOCC4)cc3)ncc2C)cc1` [Compound 389, N1-methyl-N4-(4-(5-methyl-2-(4-morpholinophenylao)pyrimidin-4-ylthio)phenyl)maleamide] was tested. Which GI50 did it give?
The GI50 was under 1 µM.

Which GI50 does the source give for `c1cc(Sc2ccc(Cn3cnnn3)cc2)nc(Nc2ccc(N3CCOCC3)cc2)n1` [Compound 109, 4-(4-((1H-tetrazol-1-yl)methyl)phenylthio)-N-(4-morpholinophenyl)pyrimidin-2-ae] here?
Its GI50 is under 20 µM.

For `C=CC(=O)Nc1ccc(Sc2nc(Nc3ccc(NS(C)(=O)=O)c(OC)c3)ncc2C)cc1` [Compound 296, N-(4-(2-(3-methoxy-4-(methylsulfonamido)phenylao)-5-methylpyrimidin-4-ylthio)phenyl)acrylamide], which GI50 is on record?
Its GI50 is under 1 µM.

Which GI50 does the source give for `Cc1cnc(Nc2ccc(N3CCOCC3)cc2)nc1Sc1ccc(N)nc1` [Compound 262, 4-(6-aopyridin-3-ylthio)-5-methyl-N-(4-morpholinophenyl)pyrimidin-2-ae] here?
Its GI50 is over 20 µM.

`C=CC(=O)Nc1ccc(Sc2nc(Nc3ccc(N4CCOCC4)cc3)ncc2C)c(C)c1` [Compound 163, N-(3-methyl-4-(5-methyl-2-(4-morpholinophenylao)pyrimidin-4-ylthio)phenyl)acrylamide] was tested. Which GI50 did it give?
Its GI50 is under 1 µM.

`O=C(/C=C/Cl)Nc1cccc(Sc2ccnc(Nc3ccc(N4CCOCC4)cc3)n2)c1` [Compound 340, (E)-3-chloro-N-(3-(2-(4-morpholinophenylao)pyrimidin-4-ylthio)phenyl)acrylamide] was tested. Which GI50 did it give?
The GI50 was under 1 µM.

With `C=CC(=O)Nc1ccc(Sc2nc(Nc3ccc(N4CCC(CO)CC4)cc3)ncc2C)cc1` [Compound 286, N-(4-(2-(4-(4-(hydroxymethyl)piperidin-1-yl)phenylao)-5-methylpyrimidin-4-ylthio)phenyl)acrylamide] as the compound, how does the GI50 read?
Its GI50 is under 1 µM.

Which GI50 does the source give for `Cc1cc(N)ccc1Sc1nc(Nc2ccc(N3CCOCC3)cc2)ncc1C` [Compound 162, 4-(4-ao-2-methylphenylthio)-5-methyl-N-(4-morpholinophenyl)pyrimidin-2-ae] here?
The GI50 was under 5 µM.

`N#CCNCc1cccc(Sc2ccnc(Nc3ccc(N4CCOCC4)cc3)n2)c1` [Compound 68, 2-(3-(2-(4-morpholinophenylao)pyrimidin-4-ylthio)benzylao)acetonitrile] was tested. Which GI50 did it give?
Its GI50 is under 20 µM.

With `Nc1ccc(Sc2ccnc(Nc3ccc(N4CCOCC4)cc3)n2)cc1` [Compound 27, 4-(4-aophenylthio)-N-(4-morpholinophenyl)pyrimidin-2-ae] as the compound, how does the GI50 read?
Its GI50 is under 20 µM.

Which GI50 does the source give for `OCc1ccc(Sc2ccnc(Nc3ccc(N4CCOCC4)cc3)n2)cc1` [Compound 67, (4-(2-(4-morpholinophenylao)pyrimidin-4-ylthio)phenyl)methanol] here?
The GI50 was under 20 µM.

With `Cc1cnc(Nc2ccc(N3CCOCC3)cc2)nc1Sc1ccc(NC(=O)CSCC(=O)O)cc1` [Compound 230, 2-(2-(4-(5-methyl-2-(4-morpholinophenylao)pyrimidin-4-ylthio)phenylao)-2-oxoethylthio)acetic acid] as the compound, how does the GI50 read?
The GI50 was over 20 µM.

`Nc1ccc(Sc2nc(Nc3ccc(N4CCOCC4)cc3)ncc2F)cc1` [Compound 263, 4-(4-aophenylthio)-5-fluoro-N-(4-morpholinophenyl)pyrimidin-2-ae] was tested. Which GI50 did it give?
The GI50 was under 5 µM.

For `N#Cc1ncn(Cc2ccc(Sc3ccnc(Nc4ccc(N5CCOCC5)cc4)n3)cc2)c1C#N` [Compound 201, 1-(4-(2-(4-morpholinophenylao)pyrimidin-4-ylthio)benzyl)-1H-imidazole-4,5-dicarbonitrile], which GI50 is on record?
Its GI50 is under 5 µM.

Which GI50 does the source give for `C=CC(=O)Nc1ccc(Sc2nc(Nc3ccc(OC)c(NS(C)(=O)=O)c3)ncc2C)cc1` [Compound 293, N-(4-(2-(4-methoxy-3-(methylsulfonamido)phenylao)-5-methylpyrimidin-4-ylthio)phenyl)acrylamide] here?
The GI50 was under 1 µM.

Which GI50 does the source give for `C=CC(=O)N(C)c1ccc(Sc2nc(Nc3ccc(N4CCOCC4)cc3)ncc2C)cc1` [Compound 173, N-methyl-N-(4-(5-methyl-2-(4-morpholinophenylao)pyrimidin-4-ylthio)phenyl)acrylamide] here?
Its GI50 is under 1 µM.

How did the GI50 turn out when `C=CC(=O)Nc1ccc(Sc2nc(Nc3cccc(N4CCOCC4)c3)ncc2C)cc1` [Compound 237, N-(4-(5-methyl-2-(3-morpholinophenylao)pyrimidin-4-ylthio)phenyl)acrylamide] was run?
Its GI50 is under 1 µM.

How did the GI50 turn out when `C=CC(=O)Nc1ccc(Nc2nccc(SC)n2)cc1` [Compound 13, N-(4-(4-(methylthio)pyrimidin-2-ylao)phenyl)acrylamide] was run?
Its GI50 is over 20 µM.

For `C=CC(=O)Nc1ccc(Sc2nc(Nc3ccc(N4CCOCC4)cc3)ncc2C)cc1CC` [Compound 260, N-(2-ethyl-4-(5-methyl-2-(4-morpholinophenylao)pyrimidin-4-ylthio)phenyl)acrylamide], which GI50 is on record?
The GI50 was under 5 µM.

With `Nc1ccc(Sc2nc(Nc3cccc(N4CCOCC4)c3)ncc2I)cc1` [Compound 264, 4-(4-aophenylthio)-5-iodo-N-(3-morpholinophenyl)pyrimidin-2-ae] as the compound, how does the GI50 read?
The GI50 was under 5 µM.
